# Laboratory results: patent US4994473A, “Pyridyl containing insecticides” (ICI Americas Inc., priority 1988, dated 1991)
# Columns and labels:
# [1] = test system: Musca domestica; assay: Housefly contact test, mortality after 48 hours; assay type: in vivo, Housefly Musca domestica; details: μg of the test compound per 25 female flies
# Method: (§1) The compounds in Table I above were tested for insecticidal activity using the following testing procedures. LC50 values, based on the results of these tests and calculated according to dosage-mortality curves, are expressed in Table II.
# The test compound was diluted in acetone and aliquots pipetted onto the bottom of aluminum dishes. To ensure even spreading of the chemical on the bottom of the dishes, 1 ml of acetone containing 0.01% peanut oil was also added to each dish. After all solvents had evaporated, the dishes were placed in circular cardboard cages containing 25 female houseflies, 1-2 days old. The cages were covered on the bottom with cellophane and on the top with tulle netting, and each contained a sugar-water saturated cotton plug for maintenance of the flies. Mortality was recorded after 48 hours. Test levels ranged from 100 μg/25 female houseflies downward. The LC-50 value is expressed below in Table II under the heading "HF", in terms of μg of the test compound per 25 female flies.
# [2] = test system: Heliothis virescens; assay: Tobacco budworm egg dip test; assay type: in vivo, Tobacco Budworm Heliothis virescens (Fabricius); details: 2-day old eggs (TBW-E), percent of test compound in solution
# Method: as §1
# Tobacco Budworm Heliothis virescens (Fabricius)
# Eggs: Paper towel patches of 2-day old eggs of the tobacco budworm were dipped in acetone solutions of the test compound and placed in petri dishes containing a portion of larval rearing medium. Treated eggs were maintained at 78° F. and mortality was recorded after all control eggs had hatched and the young larvae were feeding on the media. Test concentrations ranged from 0.1% downward. The LC-50 value is expressed below in Table II under the heading "TBW-E" in terms of percent of the test compound in the solution.
# [3] = test system: Aphis fabae; assay: Black bean aphid spray test on nasturtium plants, mortality after 48 hours; assay type: in vivo, Black Bean Aphid Aphis fabae (Scop.); details: mixed ages, percent of test compound in sprayed solution
# Method: as §1
# Black Bean Aphid Aphis fabae (Scop.)
# Nasturtium plants (Tropaeolum sp.) approximately 5 cm tall, were transplanted into sandy loam soil in small cups and infested with 25-50 black bean aphids of mixed ages. Twenty-four hours later they were sprayed to the point of runoff with 50--50 acetone-water solutions of the test compound. Treated plants were held in the greenhouse and mortality was recorded after 48 hours. Test concentrations ranged from 0.05% downward. The LC-50 value is expressed below in Table II under the heading "BA" in terms of percent of the test compound in the sprayed solution.
# [4] = test system: Trichoplusia ni; assay: Cabbage looper larvae leaf-dip test; assay type: in vivo, Cabbage Looper Trichoplusia ni (Hubner); details: second instar larvae, percent of test compound in solution, 3-5 days
# Method: as §1
# Cabbage Looper Trichoplusia ni (Hubner)
# The test compound was diluted in a 50--50 acetone-water solution Cotyledons of hyzini squash (Calabacita abobrinha), approximately 1×1.5 inches, were immersed in the test solutions for 2-3 seconds and placed on a wire screen to dry. The dried leaves were p1aced in petri dishes containing a moistened piece of filter paper and infested with 5 secondinstar cabbage looper larvae. The dishes were placed in a high humidity chamber. Mortality of the larvae was recorded 3-5 days later. Test concentrations ranged from 0.1% downward. The LC-50 value is expressed below in Table II under the heading "CL" in terms of percent of the test compound in solution.
# [5] = test system: Diabrotica undecimpunctata undecimpunctata; assay: Western spotted cucumber beetle larvae soil test; assay type: in vivo; details: Diabrotica eggs/larvae; ppm of the test compound in the soil
# Method: as §1
# Western Spotted Cucumber Beetle Larvae Diabrotica undecimpunctata undecimpunctata (Mannherheim)
# Ten grams of moist potting soil was placed in a plastic cup. The test compound was dissolved in acetone. A 0.05 ml aliquot of the test sample, diluted to the desired concentration, was added to the soil. The cup was capped and the soil was mixed on a vortex mixer for approximately 15 seconds. An indentation was made on the surface of the soil and approximately 50 Diabrotica eggs were added. The eggs were covered with soil and maintained at room temperature (approximately 70° F. or 21° C.). Four days later a section of Romaine lettuce (Latuca sativa) leaf was placed in the treated cups. One week later the cups were examined for live larvae. Test concentrations ranged from 25 ppm downward. The LC-50 value is expressed below in Table II under the heading "Diabrotica" in terms of ppm of the test compound in the soil.
# [6] = test system: Tetranychus urticae; assay: Two-spotted mite acaricidal test on pinto bean plants; assay type: in vivo, two-spotted mite Tetranychus urticae (Koch); details: percent concentration in solution, 5-7 days; for LC50 2-SM A: adults; for LC50 2-SM E: eggs
# Text: Acaricidal Evaluation Test
# The two-spotted mite (2SM) [Tetranychus urticae (Koch)]was employed in tests for miticides. The test procedure was as follows:
# Pinto bean plants (Phaseolus sp.) approximately 10 cm tall, were transplanted into sandy loam soil in small cups and thoroughly infested with two-spotted mites of mixed ages and sexes. Twenty-four hours later the infested plants were inverted and dipped for 2-3 seconds in 50--50 acetone-water solutions of the test compound. Treated plants were held in the greenhouse, and 5-7 days later mortality was determined for both adult mites and the nymphs hatching from eggs which were on the plants at the time of treatment. Test concentrations ranged from 0.05% downward. The LC-50 value is expressed below in Table II under the headings "2SM-A" (i.e., adults) and "2SM-E" (i.e. eggs) in terms of percent concentration of the test compound in the solution.
Structure (SMILES),LC50 HF [1],LC50 TBW [2],LC50 BA [3],LC50 CL [4],LC50 Diabrotica [5],LC50 2-SM A [6],LC50 2-SM E [6]
CC(C)C(=Nc1cncc(C(F)(F)F)c1)OCc1cccc(Oc2ccccc2)c1 [Compound 33],5 µg,0.075%,> 0.05%,0.0035%,> 25 ppm,> 0.05%,> 0.05%
CC(C)C(=Nc1cncc(C(F)(F)F)c1)OCc1ccc(F)c(Oc2ccc(Cl)cc2)c1 [Compound 37],40 µg,> 0.1%,> 0.05%,> 0.1%,> 25 ppm,> 0.05%,> 0.05%
CSc1ccc(N=C(OCc2cccc(Oc3ccccc3)c2)C(C)C)cn1 [Compound 38],< 100 µg,> 0.1%,0.005%,> 0.1%,> 25 ppm,> 0.05%,> 0.05%
CC(C)C(=Nc1ccc(OCC(F)(F)F)nc1)OCc1cccc(Oc2ccc(Cl)cc2)c1 [Compound 39],> 100 µg,0.02%,0.001%,> 0.1%,> 25 ppm,0.006%,0.006%
CC(C)C(=Nc1ccc(OCC(F)(F)F)nc1)OCc1cccc(Oc2ccccc2)c1 [Compound 40],< 100 µg,0.045%,0.0003%,0.00029%,> 25 ppm,0.006%,0.006%
CC(C)C(=Nc1ccc(OCC(F)(F)F)nc1)OCc1ccc(F)c(Oc2ccccc2)c1 [Compound 42],< 100 µg,0.017%,0.0004%,0.000075%,> 25 ppm,0.006%,0.006%
CC(C)C(=Nc1ccc(OCC(F)(F)F)nc1)OCc1cccc(Oc2ccc(F)cc2)c1 [Compound 43],> 100 µg,0.02%,0.0003%,0.00015%,> 25 ppm,0.006%,0.006%
CC(C)C(=Nc1ccc(OCC(F)(F)F)nc1)OCc1ccc(F)c(Oc2ccc(Cl)cc2)c1 [Compound 44],> 100 µg,0.01%,0.0003%,0.00017%,> 25 ppm,0.001%,0.001%
CC(C)C(=Nc1ccc(OCC(F)(F)F)nc1)OCc1cccc(Oc2ccccc2)n1 [Compound 45],< 100 µg,> 0.1%,0.001%,0.00075%,> 25 ppm,0.03%,0.03%
CC(C)C(=Nc1ccc(OCC(F)(F)F)nc1)OCc1cccc(Oc2ccc(Cl)cc2)n1 [Compound 46],< 100 µg,0.017%,0.0003%,0.00027%,> 25 ppm,0.006%,0.006%
C=C(C)C(=Nc1ccc(Cl)nc1)OCc1cccc(Oc2ccccc2)c1 [Compound 47],< 100 µg,< 0.1%,0.05%,< 0.1%,> 25 ppm,> 0.05%,> 0.05%
C=C(C)C(=Nc1ccc(Cl)nc1)OCc1ccc(F)c(Oc2ccc(Cl)cc2)c1 [Compound 48],< 100 µg,< 0.1%,< 0.05%,< 0.1%,> 25 ppm,> 0.05%,> 0.05%
C=C(C)C(=Nc1ccc(Cl)nc1)OCc1ccc(F)c(Oc2ccccc2)c1 [Compound 49],< 100 µg,0.1%,< 0.05%,< 0.1%,> 25 ppm,> 0.05%,> 0.05%
